pIC50: −log10 of the molar value. Where a name gives a salt, the structure may show the parent alone.
Experiments:
HCT116 [1] = settings: 72 h
Protocol: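 HCT116 control and MTA1-KO (CRISPR) HCT116 cells were seeded in 384-well plates (800 cells/well), treated 16 h later with 237 metabolism-related anticancer drugs at five doses (10 uM, 2 uM, 400 nM, 80 nM, 16 nM) for 72 h, two replicates; viability by CCK8. Values are % inhibition of viability relative to untreated cells, plus fitted IC50.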

HCT116 [2] = experiment: viability inhibition vs untreated; higher = more cytotoxic; settings: 72 h

| Structure (SMILES) | pIC50 (HCT116 [1]; genotype: MTA1-KO) | pIC50 (HCT116 [1]; genotype: control) | viability inhibition (HCT116 [2]; genotype: MTA1-KO, 16 nM) | viability inhibition (HCT116 [2]; genotype: MTA1-KO, 80 nM) | viability inhibition (HCT116 [2]; genotype: MTA1-KO, 400 nM) | viability inhibition (HCT116 [2]; genotype: MTA1-KO, 2000 nM) | viability inhibition (HCT116 [2]; genotype: MTA1-KO, 10000 nM) | viability inhibition (HCT116 [2]; genotype: control, 16 nM) | viability inhibition (HCT116 [2]; genotype: control, 80 nM) | viability inhibition (HCT116 [2]; genotype: control, 400 nM) | viability inhibition (HCT116 [2]; genotype: control, 2000 nM) | viability inhibition (HCT116 [2]; genotype: control, 10000 nM) |
| --- | --- | --- | --- | --- | --- | --- | --- | --- | --- | --- | --- | --- |
| NS(=O)(=O)c1cc2c(cc1Cl)NC(C(Cl)Cl)NS2(=O)=O (stereo not drawn) [Trichlormethiazide] | < 5.00 | < 5.00 | -29.5% | -30.5% | -28.4% | -24.3% | -25.6% | -19.9% | -23.8% | -25.7% | -14.7% | -2.52% |
| C[C@]12CC[C@H]3[C@@H](CC[C@@]45O[C@@H]4C(O)=C(C#N)C[C@]35C)[C@@H]1CC[C@@H]2O [Trilostane] | < 5.00 | < 5.00 | -17% | -18.6% | -14.1% | -30.8% | -28.2% | 8.35% | 7.91% | 2.11% | -10.9% | -4.61% |
| CC(C)[C@]12O[C@H]1[C@@H]1O[C@]13[C@]1(O[C@H]1C[C@H]1C4=C(CC[C@@]13C)C(=O)OC4)[C@@H]2O [Triptolide] | > 7.80 | > 7.80 | 58.4% | 92.8% | 88.9% | 90.8% | 92.2% | 67.7% | 105% | 90.1% | 89.5% | 91.8% |
| NS(=O)(=O)c1ccc(NC(=O)Nc2ccc(F)cc2)cc1 [U104] | < 5.00 | < 5.00 | -21.7% | -21.1% | -25.6% | -26.9% | -10.5% | -3.77% | -10.5% | -6.63% | -1.16% | 4.44% |
| N#C/C(=C\c1cn(-c2ccccc2)c2ccccc12)C(=O)O [UK5099] | < 5.00 | < 5.00 | 12.9% | -2.58% | -5.75% | -0.99% | 14% | 8.77% | 3.74% | 4.2% | 20.2% | 40% |
| NC(N)=O [Urea] | < 5.00 | < 5.00 | -19% | -12.8% | -10.1% | -15.4% | -12.3% | 5.26% | 1.82% | -7.36% | 3.6% | -3.54% |
| COc1cccc(-c2ccc(NC(=O)C3=C(C(=O)O)CCC3)c(F)c2)c1 [Vidofludimus] | 5.14 | 5.05 | 16.3% | 14.4% | 15.2% | 18.4% | 72.5% | 14.5% | 16.4% | 19.6% | 28.3% | 60.9% |
| CNC(=O)c1cccc(-c2ccc3c(N4CCOC[C@@H]4C)nc(N4CCOC[C@@H]4C)nc3n2)c1 [Vistusertib] | 6.72 | 6.50 | 16.2% | 29.8% | 63.1% | 83.3% | 76.2% | -6.57% | -15% | 45.6% | 74.4% | 69.9% |
| CNCc1cc(-c2ccccc2F)n(S(=O)(=O)c2cccnc2)c1 [Vonoprazan fumarate] | < 5.00 | < 5.00 | 12% | -19.8% | -19.3% | -21.7% | -12.1% | -12.5% | -10.5% | -14.4% | -16% | 11.8% |

Reference: the supplement of paper PMC10477900
